The values below come from patent US8530489B2 (Vertex Pharmaceuticals Incorporated, priority 2006, dated 2013).

Where only a bound is given, the exact number is not on record here.

This assay concerns the target PLK1 (Homo sapiens, UniProt P53350). Briefly: PLK1 Inhibition Assay I (radioactive-phosphate incorporation). In kind it is biochemical. The conditions noted are these: Ki(app); PLK1 Inhibition Assay I or II (table does not say which). The essentials: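 Ki(app) values came from non-linear regression of initial rates after background subtraction, with phosphopeptide measured by phosphocellulose filter binding and scintillation counting. PLK1 at 2 nM was preincubated with compound (typically from 10 μM, 2-fold dilutions) for 10 min, then run 240 min at 25° C with 350 μM [γ-33P]ATP and 450 μM peptide substrate in HEPES pH 7.5 buffer.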

Chain of PLK1 (P53350 whole entry): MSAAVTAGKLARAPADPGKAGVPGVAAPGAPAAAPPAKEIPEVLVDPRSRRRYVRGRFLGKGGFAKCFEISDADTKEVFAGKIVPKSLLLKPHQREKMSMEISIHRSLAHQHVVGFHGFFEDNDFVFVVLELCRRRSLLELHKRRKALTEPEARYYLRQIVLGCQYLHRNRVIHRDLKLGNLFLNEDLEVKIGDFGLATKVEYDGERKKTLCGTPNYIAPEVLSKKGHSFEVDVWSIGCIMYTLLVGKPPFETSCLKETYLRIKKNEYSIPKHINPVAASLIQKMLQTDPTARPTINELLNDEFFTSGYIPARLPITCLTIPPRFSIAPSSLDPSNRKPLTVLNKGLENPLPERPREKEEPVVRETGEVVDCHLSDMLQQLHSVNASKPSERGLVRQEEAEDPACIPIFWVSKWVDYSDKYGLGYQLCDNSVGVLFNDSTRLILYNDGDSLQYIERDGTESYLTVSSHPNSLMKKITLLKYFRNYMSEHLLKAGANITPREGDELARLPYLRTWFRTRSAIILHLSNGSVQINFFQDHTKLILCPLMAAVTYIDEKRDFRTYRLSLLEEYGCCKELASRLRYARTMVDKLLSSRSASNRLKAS

`C[C@@H](Nc1ncc(C#N)c(-c2c[nH]c3ncc(C(F)(F)F)cc23)n1)c1ccc(N(C)CCCN(C)C)nc1` [Compound I-283, 2-((R)-1-(6-((3-(dimethylamino)propyl)(methyl)amino)pyridin-3-yl)ethylamino)-4-(5-(trifluoromethyl)-1H-pyrrolo[2,3-b]pyridin-3-yl)pyrimidine-5-carbonitrile]: the Ki lay in the range of 3 to 40 nM.

As for `CC(C)N1CCN(c2ccc([C@@H](C)Nc3ncc(C#N)c(-c4c[nH]c5ncc(C(F)(F)F)cc45)n3)cn2)CC1` [Compound I-284, 2-((R)-1-(6-(4-isopropylpiperazin-1-yl)pyridin-3-yl)ethylamino)-4-(5-(trifluoromethyl)-1H-pyrrolo[2,3-b]pyridin-3-yl)pyrimidine-5-carbonitrile], the Ki is below 3 nM.

Regarding `CCN1CCN(c2ccc([C@@H](C)Nc3ncc(C#N)c(-c4c[nH]c5ncc(C(F)(F)F)cc45)n3)cn2)CC1` [Compound I-285, 2-((R)-1-(6-(4-ethylpiperazin-1-yl)pyridin-3-yl)ethylamino)-4-(5-(trifluoromethyl)-1H-pyrrolo[2,3-b]pyridin-3-yl)pyrimidine-5-carbonitrile], the Ki is below 3 nM.

In the case of `C[C@@H](Nc1ncc(C#N)c(-c2c[nH]c3ncc(C(F)(F)F)cc23)n1)c1ccc(N2CC[C@@H](N(C)C)C2)nc1` [Compound I-286, 2-((R)-1-(6-((R)-3-(dimethylamino)pyrrolidin-1-yl)pyridin-3-yl)ethylamino)-4-(5-(trifluoromethyl)-1H-pyrrolo[2,3-b]pyridin-3-yl)pyrimidine-5-carbonitrile], the Ki lay within 3 to 40 nM.

Take `CCN(CC)CCN(C)c1ccc([C@@H](C)Nc2ncc(C#N)c(-c3c[nH]c4ncc(C(F)(F)F)cc34)n2)cn1` [Compound I-287, 2-((R)-1-(6-((2-(diethylamino)ethyl)(methyl)amino)pyridin-3-yl)ethylamino)-4-(5-(trifluoromethyl)-1H-pyrrolo[2,3-b]pyridin-3-yl)pyrimidine-5-carbonitrile]: the Ki fell in the range of 3 to 40 nM.

On to `C[C@@H](Nc1ncc(C#N)c(-c2c[nH]c3ncc(C(F)(F)F)cc23)n1)c1ccc(N2CC[C@H](N3CCCC3)C2)nc1` [Compound I-288, 2-((R)-1-(6-((S)-1,3′-bipyrrolidin-1′-yl)pyridin-3-yl)ethylamino)-4-(5-(trifluoromethyl)-1H-pyrrolo[2,3-b]pyridin-3-yl)pyrimidine-5-carbonitrile], for which the Ki lay within 3 to 40 nM.

Consider `CNCCCN(C)c1ccc([C@@H](C)Nc2ncc(C#N)c(-c3c[nH]c4ncc(C(F)(F)F)cc34)n2)cn1` [Compound I-289, 2-((R)-1-(6-(methyl(3-(methylamino)propyl)amino)pyridin-3-yl)ethylamino)-4-(5-(trifluoromethyl)-1H-pyrrolo[2,3-b]pyridin-3-yl)pyrimidine-5-carbonitrile], for which the Ki is below 3 nM.

On to `C[C@@H](Nc1ncc(C#N)c(-c2c[nH]c3ncc(C(F)(F)F)cc23)n1)c1ccc(N2CC[C@H](N(C)C)C2)nc1` [Compound I-290, 2-((R)-1-(6-((S)-3-(dimethylamino)pyrrolidin-1-yl)pyridin-3-yl)ethylamino)-4-(5-(trifluoromethyl)-1H-pyrrolo[2,3-b]pyridin-3-yl)pyrimidine-5-carbonitrile], for which the Ki lay within 3 to 40 nM.

In the case of `C[C@@H](Nc1ncc(C#N)c(-c2c[nH]c3ncc(C(F)(F)F)cc23)n1)c1ccc(N2CCN3CCC[C@H]3C2)nc1` [Compound I-291, 2-((R)-1-(6-((S)-hexahydropyrrolo[1,2-a]pyrazin-2(1H)-yl)pyridin-3-yl)ethylamino)-4-(5-(trifluoromethyl)-1H-pyrrolo[2,3-b]pyridin-3-yl)pyrimidine-5-carbonitrile], the Ki was below 3 nM.

Take `C[C@@H](Nc1ncc(C#N)c(-c2c[nH]c3ncc(C(F)(F)F)cc23)n1)c1ccc(N2CCCN(C)CC2)nc1` [Compound I-292, 2-((R)-1-(6-(4-methyl-1,4-diazepan-1-yl)pyridin-3-yl)ethylamino)-4-(5-(trifluoromethyl)-1H-pyrrolo[2,3-b]pyridin-3-yl)pyrimidine-5-carbonitrile]: the Ki is below 3 nM.

Turning to `CC(Nc1ncc(C#N)c(-c2c[nH]c3ncc(C(F)(F)F)cc23)n1)c1ccc(N[C@@H]2CCN(C)C2)nc1` (stereo partly drawn) [Compound I-293, 2-(1-(6-((R)-1-methylpyrrolidin-3-ylamino)pyridin-3-yl)ethylamino)-4-(5-(trifluoromethyl)-1H-pyrrolo[2,3-b]pyridin-3-yl)pyrimidine-5-carbonitrile], the Ki was below 3 nM.

Turning to `C[C@@H](Nc1ncc(C#N)c(-c2c[nH]c3ncc(C(F)(F)F)cc23)n1)c1ccc(N2CCC(N(C)C)CC2)nc1` [Compound I-294, 2-((R)-1-(6-(4-(dimethylamino)piperidin-1-yl)pyridin-3-yl)ethylamino)-4-(5-(trifluoromethyl)-1H-pyrrolo[2,3-b]pyridin-3-yl)pyrimidine-5-carbonitrile], the Ki lay within 3 to 40 nM.

`C[C@@H](Nc1ncc(C#N)c(-c2c[nH]c3ncc(C(F)(F)F)cc23)n1)c1ccc(N(C)C2CCN(C)C2)nc1` (stereo partly drawn) [Compound I-295, 2-((1R)-1-(6-(methyl(1-methylpyrrolidin-3-yl)amino)pyridin-3-yl)ethylamino)-4-(5-(trifluoromethyl)-1H-pyrrolo[2,3-b]pyridin-3-yl)pyrimidine-5-carbonitrile]: the Ki was below 3 nM.

With `CCN(CCN(C)C)c1ccc([C@@H](C)Nc2ncc(C#N)c(-c3c[nH]c4ncc(C(F)(F)F)cc34)n2)cn1` [Compound I-296, 2-((R)-1-(6-((2-(dimethylamino)ethyl)(ethyl)amino)pyridin-3-yl)ethylamino)-4-(5-(trifluoromethyl)-1H-pyrrolo[2,3-b]pyridin-3-yl)pyrimidine-5-carbonitrile], the Ki was below 3 nM.

Consider `C[C@@H](Nc1ncc(C#N)c(-c2c[nH]c3ncc(C(F)(F)F)cc23)n1)c1ccc(NC2CCN(C)CC2)nc1` [Compound I-297, 2-((R)-1-(6-(1-methylpiperidin-4-ylamino)pyridin-3-yl)ethylamino)-4-(5-(trifluoromethyl)-1H-pyrrolo[2,3-b]pyridin-3-yl)pyrimidine-5-carbonitrile], for which the Ki was below 3 nM.

For the compound `C[C@@H](Nc1ncc(C#N)c(-c2c[nH]c3ncc(C(F)(F)F)cc23)n1)c1ccc(N2CCN3CCC[C@@H]3C2)nc1` [Compound I-298, 2-((R)-1-(6-((R)-hexahydropyrrolo[1,2-a]pyrazin-2(1H)-yl)pyridin-3-yl)ethylamino)-4-(5-(trifluoromethyl)-1H-pyrrolo[2,3-b]pyridin-3-yl)pyrimidine-5-carbonitrile], the Ki was below 3 nM.

Consider `C[C@@H](Nc1ncc(C#N)c(-c2c[nH]c3ncc(C(F)(F)F)cc23)n1)c1cnc(N2CCN(C)CC2)nc1` [Compound I-299, 2-((R)-1-(2-(4-methylpiperazin-1-yl)pyrimidin-5-yl)ethylamino)-4-(5-(trifluoromethyl)-1H-pyrrolo[2,3-b]pyridin-3-yl)pyrimidine-5-carbonitrile], for which the Ki is below 3 nM.

On to `C[C@@H](Nc1ncc(C#N)c(-c2c[nH]c3ncc(C(F)(F)F)cc23)n1)c1ccc(O[C@@H]2CCN(C)C2)nc1` [Compound I-300, 2-(I-1-(6-(I-1-methylpyrrolidin-3-yloxy)pyridin-3-yl)ethylamino)-4-(5-(trifluoromethyl)-1H-pyrrolo[2,3-b]pyridin-3-yl)pyrimidine-5-carbonitrile], for which the Ki is below 3 nM.

On to `C[C@H](Nc1ncc(C#N)c(-c2c[nH]c3ncc(C(F)(F)F)cc23)n1)c1ccc(O[C@@H]2CCN(C)C2)nc1` [Compound I-301, 2-((S)-1-(6-(I-1-methylpyrrolidin-3-yloxy)pyridin-3-yl)ethylamino)-4-(5-(trifluoromethyl)-1H-pyrrolo[2,3-b]pyridin-3-yl)pyrimidine-5-carbonitrile], for which the Ki is above 40 nM.

For `C[C@@H](Nc1ncc(C#N)c(-c2c[nH]c3ncc(C(F)(F)F)cc23)n1)c1cnc(O)nc1` [Compound I-302, 2-(I-1-(2-hydroxypyrimidin-5-yl)ethylamino)-4-(5-(trifluoromethyl)-1H-pyrrolo[2,3-b]pyridin-3-yl)pyrimidine-5-carbonitrile], the Ki was below 3 nM.

Take `COc1ncc([C@@H](C)Nc2ncc(C#N)c(-c3c[nH]c4ncc(C(F)(F)F)cc34)n2)cn1` [Compound I-303, 2-(I-1-(2-methoxypyrimidin-5-yl)ethylamino)-4-(5-(trifluoromethyl)-1H-pyrrolo[2,3-b]pyridin-3-yl)pyrimidine-5-carbonitrile]: the Ki is below 3 nM.

As to `N#Cc1cnc(Oc2ccccc2)nc1-c1c[nH]c2ncc(C(F)(F)F)cc12` [EG4, 2-Phenoxy-4-(5-(trifluoromethyl)-1H-pyrrolo[2,3-b]pyridin-3-yl)pyrimidine-5-carbonitrile], the Ki is above 40 nM.

Regarding `CC(C)Oc1ncc(C#N)c(-c2c[nH]c3ncc(C(F)(F)F)cc23)n1` [EG5, 2-isopropoxy-4-(5-(trifluoromethyl)-1H-pyrrolo[2,3-b]pyridin-3-yl)pyrimidine-5-carbonitrile], the Ki was above 40 nM.

For `CC(C)Nc1ncc(C#N)c(-c2c[nH]c3ncc(Nc4ccccc4)cc23)n1` [EG6, 2-(isopropylamino)-4-(5-(phenylamino)-1H-pyrrolo[2,3-b]pyridin-3-yl)pyrimidine-5-carbonitrile], the Ki lay in the range of 3 to 40 nM.

On to `CNC(=O)c1cccc(Nc2cnc3[nH]cc(-c4nc(NC(C)C)ncc4C#N)c3c2)c1` [EG7, 3-(3-(5-cyano-2-(isopropylamino)pyrimidin-4-yl)-1H-pyrrolo[2,3-b]pyridin-5-ylamino)-N-methylbenzamide], for which the Ki lay within 3 to 40 nM.

As to `Cc1cnc2[nH]cc(-c3nc(N[C@@H](CO)C(C)C)ncc3C#N)c2c1` [EG8, 2-((R)-1-hydroxy-3-methylbutan-2-ylamino)-4-(5-methyl-1H-pyrrolo[2,3-b]pyridin-3-yl)pyrimidine-5-carbonitrile], the Ki fell in the range of 3 to 40 nM.
